# Data: ChEMBL document CHEMBL1135585, “Mixed steroidal 1,2,4,5-tetraoxanes: antimalarial and antimycobacterial activity” (J Med Chem, 2002)
# Where “and” joins values, the source holds several entries; their conditions need not be identical. Equal entries are not always repeated.
# Legend:
# [1] = tested on: Mycobacterium tuberculosis; assay: In vitro inhibitory activity against Mycobacterium tuberculosis strain H37Rv at a concentration of 6.25 ug/mL; type: functional
# [2] = tested on: Mycobacterium tuberculosis; assay: In vitro anti-mycobacterial activity against Mycobacterium tuberculosis strain H37Rv; type: functional
# [3] = tested on: Plasmodium falciparum
# Description: In vitro inhibitory activity against chloroquine-sensitive Plasmodium falciparum African D6
# [4] = tested on: Plasmodium falciparum; remark: listed apart in the source
# Description: In vitro inhibitory activity against chloroquine-resistant Plasmodium falciparum W2 Indochina
# [5] = tested on: Vero; assay: In vitro cytotoxicity against VERO cell line; type: functional, cell-based; details: Chlorocebus sabaeus
SMILES,inhibition at 6.25 µg/mL [1] [%],MIC [2],IC50 [3] [nM],IC50 [4] [nM],IC50 [5]
COC(=O)CCC(C)C1CC[C@H]2[C@@H]3[C@H](OC(C)=O)C[C@@H]4CC5(CC[C@]4(C)[C@H]3C[C@H](OC(C)=O)[C@]12C)OOC1(CCC(C)CC1)OO5 (stereo in doubt; 3g),29,> 6.25 µg/mL and > 9.63 µM,9.99,5.05,
CNC(=O)CCC(C)C1CC[C@H]2[C@@H]3[C@H](OC(C)=O)C[C@@H]4CC5(CC[C@]4(C)[C@H]3C[C@H](OC(C)=O)[C@]12C)OOC1(CCC(C)CC1)OO5 (stereo in doubt; 13),98,6.25 µg/mL and 9.65 µM,5.96,3.61,5.69 µg/mL and 8.78 µM
CC(=O)O[C@H]1C[C@H]2[C@@H]([C@H](OC(C)=O)C[C@@H]3CC4(CC[C@@]32C)OOC2(CCC(C)CC2)OO4)[C@@H]2CCC(C(C)CCC(=O)O)[C@@]12C (stereo in doubt; 4g),21,> 6.25 µg/mL and > 9.84 µM,1.53,0.98,
CC(=O)O[C@H]1C[C@H]2[C@@H]([C@H](OC(C)=O)C[C@@H]3CC4(CC[C@@]32C)OOC2(CCC(C)CC2)OO4)[C@@H]2CCC(C(C)CCC(N)=O)[C@@]12C (stereo in doubt; 12),99,3.13 µg/mL and 4.94 µM,1.17,0.58,3.49 µg/mL and 5.51 µM
CCCNC(=O)CCC(C)C1CC[C@H]2[C@@H]3[C@H](OC(C)=O)C[C@@H]4CC5(CC[C@]4(C)[C@H]3C[C@H](OC(C)=O)[C@]12C)OOC1(CCC(C)CC1)OO5 (stereo in doubt; 15),94,6.25 µg/mL and 9.25 µM,3.22,3.82,8.34 µg/mL and 12.3 µM
CO[C@H]1/C=C/O[C@@]2(C)Oc3c(C)c(O)c4c(O)c(c(/C=N/N5CCN(C)CC5)c(O)c4c3C2=O)NC(=O)/C(C)=C\C=C\[C@H](C)[C@H](O)[C@@H](C)[C@@H](O)[C@@H](C)[C@H](OC(C)=O)[C@@H]1C [RIFAMPIN],,0.12 µg/mL and 0.15 µM,,,111 µg/mL and 134 µM
NNC(=O)c1ccncc1 [ISONIAZID],,0.05 µg/mL and 0.36 µM,,,> 1000 µg/mL and > 7 mM
CCNC(=O)CCC(C)C1CC[C@H]2[C@@H]3[C@H](OC(C)=O)C[C@@H]4CC5(CC[C@]4(C)[C@H]3C[C@H](OC(C)=O)[C@]12C)OOC1(CCC(C)CC1)OO5 (stereo in doubt; 14),98,3.13 µg/mL and 4.73 µM,5.8,3.93,5.37 µg/mL and 8.11 µM
